In ChEMBL document CHEMBL2074052, “Human organic anion transporters and human organic cation transporters mediate renal antiviral transport” (J Pharmacol Exp Ther, 2002):

Columns and labels:
Type in all cases: functional, cell-based
[1] = target: T1, OAT3 (Organic anion transporter 3) (Homo sapiens, UniProt Q8TCC7); experiment: TP_TRANSPORTER: inhibition of Estrone sulfate uptake (E1S: 0.05 uM, ACV: 1000 uM) in OAT3-expressing S2 cells; parameters: scale not given: the % may be the effect or the level left; settings: mouse, probe Estrone sulfate (E1S), read-out: Activity
T1 sequence (Q8TCC7 whole entry): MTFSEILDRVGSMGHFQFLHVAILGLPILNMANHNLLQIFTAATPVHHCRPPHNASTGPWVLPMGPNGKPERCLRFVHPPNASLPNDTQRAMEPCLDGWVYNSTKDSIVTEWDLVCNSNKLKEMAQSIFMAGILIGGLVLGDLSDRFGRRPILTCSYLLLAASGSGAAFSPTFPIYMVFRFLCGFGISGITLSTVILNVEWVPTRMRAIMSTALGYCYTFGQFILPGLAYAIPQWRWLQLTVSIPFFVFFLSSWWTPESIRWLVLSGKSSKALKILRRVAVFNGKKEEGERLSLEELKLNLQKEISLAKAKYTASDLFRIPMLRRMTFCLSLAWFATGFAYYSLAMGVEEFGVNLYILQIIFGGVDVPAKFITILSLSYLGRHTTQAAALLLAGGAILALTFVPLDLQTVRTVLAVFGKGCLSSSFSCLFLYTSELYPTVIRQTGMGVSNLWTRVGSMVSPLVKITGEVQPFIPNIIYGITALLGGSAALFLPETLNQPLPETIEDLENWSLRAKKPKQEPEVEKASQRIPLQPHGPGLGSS

[2] = target: T2, OAT1 (Solute carrier family 22 member 6) (Homo sapiens, UniProt Q4U2R8); experiment: TP_TRANSPORTER: inhibition of PAH uptake (PAH: 5 uM, ACV: 1000 uM) in OAT1-expressing S2 cells; parameters: scale not given: the % may be the effect or the level left; settings: probe PAH, read-out: Activity
T2 sequence (Q4U2R8 whole entry): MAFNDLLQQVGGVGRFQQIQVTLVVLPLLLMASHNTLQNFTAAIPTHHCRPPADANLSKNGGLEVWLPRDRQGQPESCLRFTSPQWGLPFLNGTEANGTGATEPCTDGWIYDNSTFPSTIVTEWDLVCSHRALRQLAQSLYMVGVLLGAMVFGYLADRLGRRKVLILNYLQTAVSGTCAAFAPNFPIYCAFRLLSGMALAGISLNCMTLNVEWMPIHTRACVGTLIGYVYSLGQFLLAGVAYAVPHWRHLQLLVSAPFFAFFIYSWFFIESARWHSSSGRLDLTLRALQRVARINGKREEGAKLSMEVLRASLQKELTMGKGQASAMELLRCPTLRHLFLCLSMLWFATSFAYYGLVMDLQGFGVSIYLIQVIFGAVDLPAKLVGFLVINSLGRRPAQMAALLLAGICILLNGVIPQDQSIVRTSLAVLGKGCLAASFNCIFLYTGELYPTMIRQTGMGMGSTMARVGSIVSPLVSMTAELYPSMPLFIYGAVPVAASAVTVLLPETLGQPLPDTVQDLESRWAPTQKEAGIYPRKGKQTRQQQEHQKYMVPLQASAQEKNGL

[3] = target: T3, OCT1 (Solute carrier family 22 member 1) (Homo sapiens, UniProt O15245); experiment: TP_TRANSPORTER: inhibition of TEA uptake (TEA: 5 uM, ACV: 1000 uM) in OCT1-expressing S2 cells; parameters: scale not given: the % may be the effect or the level left; settings: probe TEA, read-out: Activity
T3 sequence (O15245 whole entry): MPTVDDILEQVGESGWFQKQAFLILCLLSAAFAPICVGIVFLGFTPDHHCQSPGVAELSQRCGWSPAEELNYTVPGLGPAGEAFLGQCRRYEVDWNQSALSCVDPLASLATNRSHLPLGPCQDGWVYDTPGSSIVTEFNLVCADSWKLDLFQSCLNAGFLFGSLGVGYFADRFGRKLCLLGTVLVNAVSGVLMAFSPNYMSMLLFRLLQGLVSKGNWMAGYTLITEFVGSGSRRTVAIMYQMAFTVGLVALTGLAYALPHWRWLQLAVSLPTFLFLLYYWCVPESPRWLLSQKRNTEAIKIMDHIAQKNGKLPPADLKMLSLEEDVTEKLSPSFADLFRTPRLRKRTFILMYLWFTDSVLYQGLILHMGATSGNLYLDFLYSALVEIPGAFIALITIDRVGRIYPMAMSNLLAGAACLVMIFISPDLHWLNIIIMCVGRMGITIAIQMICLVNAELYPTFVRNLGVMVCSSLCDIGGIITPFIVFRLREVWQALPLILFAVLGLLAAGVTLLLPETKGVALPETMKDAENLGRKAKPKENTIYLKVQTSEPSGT

[4] = target: T4, OAT2 (Solute carrier family 22 member 7) (Homo sapiens, UniProt Q9Y694); experiment: TP_TRANSPORTER: inhibition of PGF2alpha uptake (PGF2alpha: 0.005 uM, GCV: 1000 uM) in OAT2-expressing S2 cells; parameters: scale not given: the % may be the effect or the level left; settings: probe PGF2alpha, read-out: Activity
T4 sequence (Q9Y694 whole entry): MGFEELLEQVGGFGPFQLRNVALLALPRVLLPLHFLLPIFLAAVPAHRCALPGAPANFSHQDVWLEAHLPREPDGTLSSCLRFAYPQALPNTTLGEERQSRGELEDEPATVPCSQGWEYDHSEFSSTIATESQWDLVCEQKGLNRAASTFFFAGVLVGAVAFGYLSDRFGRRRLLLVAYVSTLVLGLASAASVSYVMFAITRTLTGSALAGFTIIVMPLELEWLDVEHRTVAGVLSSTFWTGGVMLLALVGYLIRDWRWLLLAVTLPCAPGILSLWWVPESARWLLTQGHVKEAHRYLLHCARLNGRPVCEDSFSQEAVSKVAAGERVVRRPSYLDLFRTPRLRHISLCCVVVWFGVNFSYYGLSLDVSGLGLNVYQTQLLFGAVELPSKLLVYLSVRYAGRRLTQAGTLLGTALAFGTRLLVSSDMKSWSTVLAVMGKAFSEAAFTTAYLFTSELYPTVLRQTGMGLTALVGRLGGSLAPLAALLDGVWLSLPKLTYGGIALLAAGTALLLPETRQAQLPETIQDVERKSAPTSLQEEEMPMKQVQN

[5] = target: T1, OAT3 (Organic anion transporter 3); experiment: TP_TRANSPORTER: inhibition of E1S uptake (E1S: 0.05 uM, GCV: 1000 uM) in OAT3-expressing S2 cells; parameters: scale not given: the % may be the effect or the level left; settings: mouse, probe E1S, read-out: Activity
[6] = target: T3, OCT1 (Solute carrier family 22 member 1); experiment: TP_TRANSPORTER: inhibition of TEA uptake (TEA: 5 uM, GCV: 1000 uM) in OCT1-expressing S2 cells; parameters: scale not given: the % may be the effect or the level left; settings: probe TEA, read-out: Activity
[7] = target: T2, OAT1 (Solute carrier family 22 member 6); experiment: TP_TRANSPORTER: inhibition of PAH uptake (PAH: 5 uM, GCV: 1000 uM) in OAT1-expressing S2 cells; parameters: scale not given: the % may be the effect or the level left; settings: mouse, probe PAH, read-out: Activity
[8] = target: T1, OAT3 (Organic anion transporter 3); experiment: TP_TRANSPORTER: uptake in OAT3-expressing S2 cells; settings: mouse
[9] = target: T4, OAT2 (Solute carrier family 22 member 7); experiment: TP_TRANSPORTER: inhibition of PGF2alpha uptake (PGF2alpha: 0.005 uM, AZT: 1000 uM) in OAT2-expressing S2 cells; parameters: scale not given: the % may be the effect or the level left; settings: probe PGF2alpha, read-out: Activity
[10] = target: T5, OAT4 (Solute carrier family 22 member 11) (Homo sapiens, UniProt Q9NSA0); experiment: TP_TRANSPORTER: inhibition of E1S uptake (E1S: 0.05 uM, AZT: 1000 uM) in OAT4-expressing S2 cells; parameters: scale not given: the % may be the effect or the level left; settings: mouse, probe E1S, read-out: Activity
T5 sequence (Q9NSA0 whole entry): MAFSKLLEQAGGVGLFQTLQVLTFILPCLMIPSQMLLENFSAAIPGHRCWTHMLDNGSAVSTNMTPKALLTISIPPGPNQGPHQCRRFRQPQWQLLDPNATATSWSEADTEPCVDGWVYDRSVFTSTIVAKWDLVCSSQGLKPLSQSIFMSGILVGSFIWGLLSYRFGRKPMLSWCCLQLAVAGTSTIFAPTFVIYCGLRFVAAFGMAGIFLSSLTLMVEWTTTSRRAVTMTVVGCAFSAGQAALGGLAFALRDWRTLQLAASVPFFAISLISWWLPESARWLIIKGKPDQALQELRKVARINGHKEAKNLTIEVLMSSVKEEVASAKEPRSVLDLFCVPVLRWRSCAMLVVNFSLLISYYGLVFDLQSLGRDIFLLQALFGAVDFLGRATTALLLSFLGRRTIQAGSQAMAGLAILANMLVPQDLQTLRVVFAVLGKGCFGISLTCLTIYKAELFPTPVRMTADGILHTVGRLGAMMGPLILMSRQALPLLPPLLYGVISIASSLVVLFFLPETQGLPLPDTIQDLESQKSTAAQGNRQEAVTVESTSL

[11] = target: T1, OAT3 (Organic anion transporter 3); experiment: TP_TRANSPORTER: inhibition of E1S uptake (E1S: 0.05 uM, AZT: 1000 uM) in OAT3-expressing S2 cells; parameters: scale not given: the % may be the effect or the level left; settings: mouse, probe E1S, read-out: Activity
[12] = target: T2, OAT1 (Solute carrier family 22 member 6); experiment: TP_TRANSPORTER: uptake in OAT1-expressing S2 cells
[13] = target: T2, OAT1 (Solute carrier family 22 member 6); experiment: TP_TRANSPORTER: inhibition of PAH uptake (PAH: 5 uM, AZT: 1000 uM) in OAT1-expressing S2 cells; parameters: scale not given: the % may be the effect or the level left; settings: mouse, probe PAH, read-out: Activity
[14] = target: T4, OAT2 (Solute carrier family 22 member 7); experiment: TP_TRANSPORTER: uptake in OAT2-expressing S2 cells
[15] = target: T5, OAT4 (Solute carrier family 22 member 11); experiment: TP_TRANSPORTER: uptake in OAT4-expressing S2 cells

`Nc1nc2c(ncn2COCCO)c(=O)[nH]1` [ACYCLOVIR] was tested, and the activity at 1000 µM [1] was 64.3%, the activity at 1000 µM [2] was 67% and the activity at 1000 µM [3] was 88.4%.
For `Nc1nc(O)c2ncn(COC(CO)CO)c2n1` [GANCICLOVIR], the activity at 1000 µM [4] was 63.3%, the activity at 1000 µM [5] was 74.3% and the activity at 1000 µM [6] was 88.3%. The activity at 1000 µM [7] was 87.1%.
Compound `Cc1cn([C@H]2C[C@H](N=[N+]=[N-])[C@@H](CO)O2)c(=O)[nH]c1=O` [ZIDOVUDINE] has a Km [8] of 145 µM, an activity at 1000 µM [9] of 76.7% and an activity at 1000 µM [10] of 84.2%. It also gave an activity at 1000 µM [11] of 70%, a Km [12] of 45.9 µM and an activity at 1000 µM [13] of 30.7%. The Km [14] was 26.8 µM and the Km [15] was 152 µM.
